Here are results for 10 compounds from US9073961B2, “Substitution derivatives of N6 -benzyladenosine-5′-monophosphate, methods of preparation thereof, use thereof as medicaments, and therapeutic preparations containing these compounds” (UNIVERZITA PALACKEHO V OLOMOUCI, priority 2010, dated 2015).

One test concerns Human lymphocytes. Briefly: Immunosuppressive activity, 3H-thymidine incorporation in concanavalin A activated lymphocytes. The note with it: 72 hours, [3H]-TdR incorporation, read-out: Human lymphocytes ED50. The test is classed as cell-based. An excerpt:
One of the most important parameters of specific cellular immunity is the proliferative response of lymphocytes to antigens or polyclonal mitogens. The majority of normal mammalian peripheral lymphocytes comprise resting cells. Antigens or nonspecific polyclonal mitogens have the capacity to activate lymphoid cells and this is accompanied by dramatic changes of intracellular metabolism (mitochondrial activity, protein synthesis, nucleic acids synthesis, formation of blastic cells and cellular proliferation). […] Variety of in vitro assays was developed to measure proliferative response of lymphocytes. The most commonly used is ^3H-thymidine incorporation method.
During cell proliferation, DNA has to be replicated before the cell is divided into two daughter cells. This close association between cell doublings and DNA synthesis is very attractive for assessing cell proliferation. If labelled DNA precursors are added to the cell culture, cells that are about to divide incorporate the labelled nucleotide into their DNA. Traditionally, those assays usually involve the use of radiolabelled nucleosides, particularly tritiated thymidine ([^3H]-TdR). The amount of [^3H]-TdR incorporated into the cellular DNA is quantified by liquid scintillation counting.
Human heparinized peripheral blood was obtained from healthy volunteers by cubital vein punction. The blood was diluted in PBS (1:3) and mononuclear cells were separated by centrifugation in Ficoll-Hypaque density gradient (Pharmacia, 1.077 g/ml) at 2200 rpm for 30 minutes. Following centrifugation, lymphocytes were washed in PBS and resuspended in cell culture medium (RMPI 1640, 2 mM glutamine, 100 U/ml penicillin, 100 μg/ml streptomycin, 10% fetal calf serum and sodium bicarbonate).
The cells were diluted at target density of 1.100.000 cells/ml and were added by pipette (180 μl) into 96-well microtiter plates. Four-fold dilutions of the intended test concentration were added at time zero in 20 μl aliquots to the microtiter plate wells. Usually, test compound was evaluated at six 4-fold dilutions. In routine testing, the highest well concentration was 266.7 μM. All drug concentrations were examined in duplicates. All wells with exception of unstimulated controls were activated with 50 μl of concanavalin A (25 μg/ml). Incubations of cells with test compounds lasted for 72 hours at 37° C., in 5% CO2 atmosphere and 100% humidity. At the end of incubation period, the cells were assayed by using the [^3H]-TdR:
Cell cultures were incubated with 0.5 μCi (20 μl of stock solution 500 μCi/ml) per well for 6 hours at 37° C. and 5% CO2. The automated cell harvester was used to lyse cells in water and adsorb the DNA onto glass-fiber filters in the format of microtiter plate. The DNA incorporated [^3H]-TdR was retained on the filter while unincorporated material passes through. The filters were dried at room temperature overnight, sealed into a sample bag with 10-12 ml of scintillant. The amount of [^3H]-TdR present in each filter (in cpm) was determined by scintillation counting in a Betaplate liquid scintillation counter. The effective dose of immunosuppressant (ED) was calculated using the following equation: ED=(CCPMdrug exposed well/mean CCPMcontrol wells)×100%. The ED50 value, the drug concentration inhibiting proliferation of 50% of lymphocytes, was calculated from the obtained dose response curves.
To evaluate immunosuppressive activity of substituted adenines, their ability to inhibit polyclonal mitogen induced proliferation of normal human lymphocytes was analyzed (Table 4). […] Effective immunosuppressive dose of new derivatives under in vitro conditions was close to 10-40 μM.

For test [1], the system named is HOS (human osteogenic sarcoma). Nature of the test: Calcein AM cytotoxicity assay, HOS. The format is cell-based. The note with it: 72 hours incubation. An excerpt:
(§1) Because toxic compounds negatively influence metabolic processes in cells, many standard cytotoxicity assays are based on measurement of metabolisation rate of various artificial substrates. Resulting product is then quantified e.g. by means of spectrometry. The assays can be easily modified for use in 96-well plates. For evaluation of cytotoxic effect of the novel substituted 9-substituted cytokinin derivatives of this invention, a microtiter assay based on quantification of metabolisation of Calcein AM was used. The assay is widely used in drug screening programs and in chemosensitivity testing. In the living cells, Calcein AM is enzymatically hydrolysed and accumulation of resulting calcein is manifested by green fluorescence.
(§2) In the routine screening the following cell lines have been used: CEM (T-lymphoblastoid leukemia), HL-60 (promyelocytic leukemia), K-562 (human erythroleukemia), MCF-7 (breast carcinoma), HOS (human osteogenic sarcoma), and G-361 (human malignant melanoma). Normal human fibroblasts BJ were used as a control for routine screening of the compounds. The cells were kept in Nunc/Corning 80 cm^2 plastic bottles and grown in cell culture medium (DMEM containing 5 g/l glucose, 2 mM glutamine, 100 U/ml penicilline, 100 μg/ml streptomycine, 10% fetal bovine serum and sodium hydrogencarbonate), the compounds were prepared according to the procedure of the present invention.
(§3) The cell suspensions were prepared and diluted according to the particular cell type and the expected target cell density (2.500-30.000 cells per well based on cell growth characteristics) and pippetted (80 μl) into 96-well plates. Inoculates were allowed a pre-incubation period of 24 hours at 37° C. and 5% CO2 for stabilisation. Tested compound was added in total volume of 20 μl of water at time zero. Usually, test compound was evaluated at six 3-fold dilutions. In routine testing, the highest concentration tested was 166.7 μM. All drug concentrations were tested in triplicates. Incubations of cells with the test compounds lasted for 72 hours at 37° C., in 5% CO2 atmosphere and 100% humidity. At the end of incubation period Calcein AM in PBS was added into final concentration of 1 μg/ml. After another 1 hour of incubation fluorescence (FD) was measured with the Labsystem FIA Reader Fluoroscan Ascent (Microsystems). Tumor cell survival (TCS) was estimated using the following equation: […]=(FDdrug exposed well/FDcontrol well)×100%. The GI50 value, the drug concentration causing 50% reduction of esterase activity, was calculated from the obtained dose response curves (FIG. 1).
(§4) Cytoxicity of novel compounds was tested on panel of cell lines of different histogenetic and species origin (Table 3). […] The effective novel derivatives killed tumour cells in concentrations close to 0.1-50 μM.

Test [2] deals with K-562 (human erythroleukemia). Nature of the test: Calcein AM cytotoxicity assay, K-562. The format is cell-based. To be noted: 72 hours incubation.
Description: as §1, §2, §3, §4

A further test deals with MCF-7 (breast carcinoma). Briefly: Calcein AM cytotoxicity assay, MCF7. The format is cell-based. To be noted: 72 hours incubation.
Description: as §1, §2, §3, §4

For test [3], the system named is CEM (T-lymphoblastoid leukemia). Nature of the test: Calcein AM cytotoxicity assay, CEM. The format is cell-based. To be noted: 72 hours incubation, Calcein AM.
Description: as §1, §2, §3, §4

In test [4] the test system is HL-60 (promyelocytic leukemia). Briefly: Calcein AM cytotoxicity assay, HL60. To be noted: 72 hours incubation. The test is classed as cell-based, human.
Description: as §1, §2, §3, §4

For test [5], the system named is cytokinin-dependent tobacco callus Nicotiana tabacum L. cv. Wisconsin 38. Nature of the test: Growth of cytokinin-dependent tobacco callus. The test is classed as cell-based. To be noted: for Activity (%) [10^−5 mol · l^−1 KR = 100%]: at concentration with highest activity, relative to control cytokinin; for Concentration with highest activity: tobacco callus fresh weight after four weeks. As to the method: Cytokinin effect of newly prepared derivatives was tested using cytokinin-dependent tobacco callus. The cytokinin-dependent tobacco callus Nicotiana tabacum L. cv. Wisconsin 38 was maintained at 25° C. in darkness on modified MS medium, containing per 1 liter: 4 μmol of nicotinic acid, 2.4 μmol of pyridoxine hydrochloride, 1.2 μmol of thiamine, 26.6 μmol of glycine, 1.37 μmol of glutamine, 1.8 μmol of myo-inositol, 30 g of sucrose, 8 g of agar, 5.37 μmol of NAA and 0.5 μmol of the compound tested. Subcultivation was carried out every three weeks. Fourteen days before the bioassay, the callus tissue was transferred to the media without 6-benzylaminopurine. The biological activity was determined from the increase of the fresh callus weight after four weeks of cultivation. Five replicates were prepared for each concentration of the compound tested and the entire test was repeated twice. […] The compounds to be tested were dissolved in dimethylsulfoxide (DMSO) and the solution brought up to 10^−3 M with distilled water. […] The stimulatory activity was calculated from the dose-dependent fresh weight callus growth curves.
From the obtained data, the concentration with the highest activity was selected for each compound tested. Relative activity of the compound at this concentration was calculated (Table 5). […]

For test [6], the system named is Normal human fibroblasts BJ. Nature of the test: Calcein AM cytotoxicity assay, BJ. The test is classed as cell-based. The note with it: 72 hours incubation.
Description: as §1, §2, §3, §4

Regarding `O=P(O)(O)OC[C@H]1O[C@@H](n2cnc3c(NCc4cccc(Cl)c4O)ncnc32)[C@H](O)[C@@H]1O` [2-hydroxy-3-chlorobenzylamino, 6-(2-hydroxy-3-chlorobenzylamino)purine ribo side-5′-monophosphate], in the test with Human lymphocytes, the EC50 came out at 3.2 µM.
Take `COc1ccc(CNc2ncnc3c2ncn3[C@@H]2O[C@H](COP(=O)(O)O)[C@@H](O)[C@H]2O)c(O)c1` [2-hydroxy-4-methoxybenzylamino, 6-(2-hydroxy-4-methoxybenzylamino)purine riboside-5′-monophosphate]: the EC50 with Human lymphocytes amounted to 2.1 µM.
The same measure, in the same setting: to `O=P(O)(O)OC[C@H]1O[C@@H](n2cnc3c(NCc4ccc(O)c(O)c4)ncnc32)[C@H](O)[C@@H]1O` [3,4-dihydroxybenzylamino, 6-(3,4-dihydroxybenzylamino)purine riboside-5′-monophosphate] belongs 9.4 µM.
The GI50 is the concentration that inhibits growth by half. In the case of `O=P(O)(O)OC[C@H]1O[C@@H](n2cnc3c(NCc4ccccc4F)ncnc32)[C@H](O)[C@@H]1O` [Compound 1, 6-(2-fluorobenzylamino)purine riboside-5′-monophosphate], the GI50 is over 167 µM in test [1]; 33.2 µM in test [2]; over 167 µM in the test on MCF-7 (breast carcinoma); 4.6 µM in test [3]; 3.2 µM in test [4]. For the same compound, the EC50 with Human lymphocytes came to 6.3 µM. Also, the “Activity (%) [10^−5 mol · l^−1 KR = 100%]” value (from here on “Activity (%)”) in test [5] is listed as 100 ± 9%. In test [5], the “Concentration with highest activity” value is reported as 10^−6 mol · l^−1.
On to `O=P(O)(O)OC[C@H]1O[C@@H](n2cnc3c(NCc4ccc(F)cc4)ncnc32)[C@H](O)[C@@H]1O` [Compound 3, 6-(4-fluorobenzylamino)purine riboside-5′-monophosphate], for which the GI50 in test [1] was 20 µM; in test [2], 6.4 µM; with MCF-7 (breast carcinoma) it was 14 µM; in test [6], over 167 µM; in test [3] it was 1.5 µM; in test [4], 0.86 µM. Further, in the test on Human lymphocytes, the EC50 stood at 13.4 µM.
As to `O=P(O)(O)OC[C@H]1O[C@@H](n2cnc3c(NCc4ccccc4Cl)ncnc32)[C@H](O)[C@@H]1O` [Compound 4, 6-(2-chlorobenzylamino)purine riboside-5′-monophosphate], the GI50 was over 167 µM in test [1]; 64 µM in test [2]; over 167 µM in the test with MCF-7 (breast carcinoma); over 167 µM in test [6]; 14.5 µM in test [3]; 1.6 µM in test [4]. The EC50 with Human lymphocytes was 8.7 µM. In addition, the “Activity (%)” value in test [5] is 121 ± 4%. Further, the “Concentration with highest activity” value in test [5] is recorded as 10^−6 mol · l^−1.
As to `O=P(O)(O)OC[C@H]1O[C@@H](n2cnc3c(NCc4cccc(Cl)c4)ncnc32)[C@H](O)[C@@H]1O` [Compound 5, 6-(3-chlorobenzylamino)purine riboside-5′-monophosphate], the 50% growth inhibitory concentration (GI50) was over 167 µM in test [1]; 30.4 µM in test [2]; over 167 µM with MCF-7 (breast carcinoma); over 167 µM in test [6]; 1.6 µM in test [3]; 0.75 µM in test [4]. For the same compound, the EC50 in the test on Human lymphocytes was determined as 3.2 µM. Also, in test [5], the “Activity (%)” value worked out at 109 ± 5%. In test [5], the “Concentration with highest activity” value was 10^−5 mol · l^−1.
As to `O=P(O)(O)OC[C@H]1O[C@@H](n2cnc3c(NCc4ccc(Cl)cc4)ncnc32)[C@H](O)[C@@H]1O` [Compound 6, 6-(4-chlorobenzylamino)purine riboside-5′-monophosphate], the GI50 was over 167 µM in test [1]; 16.1 µM in test [2]; over 167 µM with MCF-7 (breast carcinoma); over 167 µM in test [6]; 6.5 µM in test [3]; 5.3 µM in test [4]. The EC50 with Human lymphocytes turned out to be 3.3 µM.
Regarding `Cc1cccc(CNc2ncnc3c2ncn3[C@@H]2O[C@H](COP(=O)(O)O)[C@@H](O)[C@H]2O)c1` [Compound 13, 6-(3-methylbenzylamino)purine riboside-5′-monophosphate], the GI50 is over 167 µM in test [1]; over 167 µM in test [2]; over 167 µM in the test with MCF-7 (breast carcinoma); over 167 µM in test [6]; 19.1 µM in test [3]; 6.4 µM in test [4]. The EC50 with Human lymphocytes was 7.5 µM.
For the compound `O=P(O)(O)OC[C@H]1O[C@@H](n2cnc3c(NCc4ccc(F)c(Cl)c4)ncnc32)[C@H](O)[C@@H]1O` [Compound 41, 6-(3-chloro-4-fluorobenzylamino)purine riboside-5′-monophosphate], the GI50 in test [1] is over 167 µM; in test [2] it was 4.1 µM; in the test on MCF-7 (breast carcinoma), over 167 µM; in test [6] it was over 167 µM; in test [3], 3.4 µM; in test [4], 3.5 µM. For the same compound, in test [5], the “Activity (%)” value amounted to 107 ± 4%. Also, the “Concentration with highest activity” value in test [5] was 10^−6 mol · l^−1.
